Results reported in patent US20050215644A1, “Methods for increasing neurotransmitter levels using hydroxycitric acid” (InterHealth Nutraceuticals, Inc., priority 2004, published 2005).

Key:
[1] = test system: rat brain cortex neurotransmitters; test: effects of an HCA extract and fluoxetine on rat brain cortex neurotransmitters (reverse phase HPLC with electrochemical detection); assay type: in vivo; settings: for increase in DOPAC / increase in cortex DA / increase in cortex 5-HT: after 90 days; for increase in DOPAC / increase in cortex DA / increase in cortex 5-HT / decrease in cortex HIAA / decrease in DA / decrease in cortex HVA: p<0.05; for decrease in cortex HIAA / decrease in cortex 5-HT / decrease in DA / decrease in cortex HVA: 15 mg/kg per day oral
Experimental: […] The 5% HCA dose corresponds to 25-times the recommended dose of HCA. Animals were euthanized after 30, 60 and 90 days. Brain cortices were analyzed for serotonin (5-HT), its metabolite 5-hydroxyindoleacetic acid (HIAA), dopamine (DA), and its metabolites 3, 4-dihydroxyphenylacetic acid (DOPAC) and homovanillic acid (HVA) content utilizing reverse phase HPLC with electrochemical detection.

[2] = test system: isolated rat brain cortex; settings: cited from earlier work
[3] = first of three values (day 30 by analogy with b27)
[4] = second of three values (day 60 by analogy with b27)
[5] = third of three values (day 90 by analogy with b27)

## O=C(O)CC(O)(C(=O)O)C(O)C(=O)O (single isomer, unassigned; (-)) [HCA, (−)-hydroxycitric acid]
[1]; HCA 0.02% oral
  increase in DOPAC: 23%
  increase in cortex DA: 10%
[1]; HCA 0.02% oral, day 90, p<0.05
  increase in cortex HVA: 12%
[1]; HCA 0.2% of diet (10 mg per day) oral
  increase in cortex 5-HT: 11%
[1]; HCA 2% of diet (100 mg per day) oral
  increase in cortex 5-HT: 9%
[1]; HCA 2% of diet oral
  increase in DOPAC: 26%
  increase in cortex DA: 15%
[1]; HCA 2% of diet oral, day 90, p<0.05
  increase in cortex HVA: 15%
[1]; HCA 5% of diet (250 mg per day) oral
  increase in cortex 5-HT: 12%
[1]; HCA 5% of diet oral
  increase in DOPAC: 29%
  increase in cortex DA: 18%
[1]; HCA 5% of diet oral, day 90, p<0.05
  increase in cortex HVA: 13%
[1]; any of the HCA treatment groups (0.2, 2, 5% of diet; 30, 60, 90 days)
  changes in HIAA: No changes
[2]; HCA applied on its own
  efflux of 5-HT: concentration-dependent increase
[2]
  effect on baseline of spontaneous tritium efflux: altered the baseline
  effect on potassium-evoked release of 5-HT: no significant effect

## CNCCC(Oc1ccc(C(F)(F)F)cc1)c1ccccc1 (centres unmarked) [fluoxetine, reference compound]
[1]; 30 days post-treatment
  decrease in cortex HIAA: 19%
[1]; 60 days post-treatment
  decrease in cortex HIAA: 15%
[1]; 90 days post-treatment
  decrease in cortex HIAA: 17%
[1]; day 30, p<0.05
  decrease in cortex 5-HT: 9%
[1]; day 60, p<0.05
  decrease in cortex 5-HT: 7%
[1]; day 90, p<0.05
  decrease in cortex 5-HT: 8%
[1]; [3]
  decrease in DA: 18%
  decrease in cortex HVA: 17%
[1]; [4]
  decrease in DA: 15%
  decrease in cortex HVA: 13%
[1]; [5]
  decrease in DA: 19%
  decrease in cortex HVA: 14%
[1]; all fluoxetine groups (15 mg/kg per day oral; 30, 60, 90 days)
  changes in cortex DOPAC: No changes
